In patent US20260363243A1 (priority 2022, published 2026):

System: cucumber downy mildew
Experiment: Activity in vivo for inhibiting cucumber downy mildew (potting method, greenhouse)
Conditions: for efficacy compared with dimethomorph and cyazofamid / efficacy compared with oxathiapiprolin / bactericidal activity: in words
[1] = 0.078 mg/L, re-screening, Table 2
[2] = 0.312 mg/L, re-screening, Table 2
[3] = 1.25 mg/L, re-screening, Table 2
[4] = 0.02 mg/L, re-screening, Table 2

Description: The test and investigation method refers to a SOP-SC-1098 cucumber downy mildew potting method in the fungicide section of Standard operation Specification for testing biological Activity of pesticides written by Kang Zhuo and Gu Baogen.

Row | Compound | Control effect (5 mg/L, Table 1) | Control effect (20 mg/L, Table 1) | Control effect (1.25 mg/L, Table 1) | also measured
1 | CO/C=C(\C)C(=O)N1CCC(c2nc(C3=NOC(c4c(F)cccc4F)C3)cs2)CC1 (stereo not drawn) [Compound I-7] | B (75%≤B<90%) | A (90%≤A≤100%) |  | 
2 | CO/C=C(\Cl)C(=O)N1CCC(c2nc(C3=NOC(c4c(F)cccc4F)C3)cs2)CC1 (stereo not drawn) [Compound I-3] | A (90%≤A≤100%) | A (90%≤A≤100%) | A (90%≤A≤100%) | 
3 | CO/C=C(\F)C(=O)N1CCC(c2nc(C3=NOC(c4c(F)cccc4F)C3)cs2)CC1 (stereo not drawn) [Compound I-2] | B (75%≤B<90%) | A (90%≤A≤100%) | B (75%≤B<90%) | 
4 | CC1COC(C)(CC(=O)N2CCC(c3nc(C4=NOC(c5c(F)cccc5F)C4)cs3)CC2)O1 (stereo not drawn) [II-12] | D (45%≤D<60%) | A (90%≤A≤100%) |  | 
5 | O=C(CC1OCCCO1)N1CCC(c2nc(C3=NOC(c4c(F)cccc4F)C3)cs2)CC1 (stereo not drawn) [II-21] | B (75%≤B<90%) | A (90%≤A≤100%) | D (45%≤D<60%) | 
6 | CCO/C(C)=C/C(=O)N1CCC(c2nc(C3=NOC(c4c(F)cccc4F)C3)cs2)CC1 (stereo not drawn) [Compound I-30] | B (75%≤B<90%) | A (90%≤A≤100%) | B (75%≤B<90%) | 
7 | CO/N=C(\C)C(=O)N1CCC(c2nc(C3=NOC(c4c(F)cccc4F)C3)cs2)CC1 (stereo not drawn) [Compound I-23] | B (75%≤B<90%) | B (75%≤B<90%) | D (45%≤D<60%) | 
8 | CCCOC(CC(=O)N1CCC(c2nc(C3=NOC(c4c(F)cccc4F)C3)cs2)CC1)OCC (stereo not drawn) [II-4] | A (90%≤A≤100%) | A (90%≤A≤100%) | A (90%≤A≤100%) | efficacy compared with dimethomorph and cyazofamid (0.078 mg/L): superior to that of dimethomorph and cyazofamid; efficacy compared with oxathiapiprolin (0.078 mg/L): equivalent to that of oxathiapiprolin at the same concentration; Control effect (0.078 mg/L, re-screening): ≥ 90%; Control effect [1]: A (90%≤A≤100%); Control effect [2]: A (90%≤A≤100%); Control effect [3]: A (90%≤A≤100%); bactericidal activity (re-screening): excellent bactericidal activity
9 | CO/N=C(/C(=O)N1CCC(c2nc(C3=NOC(c4c(F)cccc4F)C3)cs2)CC1)c1ccccc1 (stereo not drawn) [Compound I-18] |  | D (45%≤D<60%) |  | 
10 | CCO/N=C/C(=O)N1CCC(c2nc(C3=NOC(c4c(F)cccc4F)C3)cs2)CC1 (stereo not drawn) [Compound I-29] | A (90%≤A≤100%) | A (90%≤A≤100%) | A (90%≤A≤100%) | 
11 | CCO/N=C(/C(=O)N1CCC(c2nc(C3=NOC(c4c(F)cccc4F)C3)cs2)CC1)c1cc(C)ccc1C (stereo not drawn) [Compound I-26] | D (45%≤D<60%) | C (60%≤C<75%) | D (45%≤D<60%) | 
12 | CO/N=C/C(=O)N1CCC(c2nc(C3=NOC(c4c(F)cccc4F)C3)cs2)CC1 (stereo not drawn) [Compound I-22] | A (90%≤A≤100%) | A (90%≤A≤100%) | A (90%≤A≤100%) | Control effect [1]: B (75%≤B<90%); Control effect [2]: B (75%≤B<90%); Control effect [3]: A (90%≤A≤100%)
13 | COC(OC)C(C(=O)N1CCC(c2nc(C3=NOC(c4c(F)cccc4F)C3)cs2)CC1)c1ccccc1 (stereo not drawn) [II-10] |  | D (45%≤D<60%) |  | 
14 | CC1(CC(=O)N2CCC(c3nc(C4=NOC(c5c(F)cccc5F)C4)cs3)CC2)OCCO1 (stereo not drawn) [II-11] | C (60%≤C<75%) | A (90%≤A≤100%) | D (45%≤D<60%) | 
15 | Cc1ccc(-c2c(Cl)nc(C#N)n2S(=O)(=O)N(C)C)cc1 [cyazofamid, reference compound] |  |  |  | Control effect [4]: E (0%≤E<45%); Control effect [1]: B (75%≤B<90%); Control effect [2]: A (90%≤A≤100%); Control effect [3]: A (90%≤A≤100%)
16 | CC/C(=C\OC)C(=O)N1CCC(c2nc(C3=NOC(c4c(F)cccc4F)C3)cs2)CC1 (stereo not drawn) [Compound I-8] | A (90%≤A≤100%) | A (90%≤A≤100%) | A (90%≤A≤100%) | 
17 | CO/C=C(/C(=O)N1CCC(c2nc(C3=NOC(c4c(F)cccc4F)C3)cs2)CC1)c1cc(C)ccc1C (stereo not drawn) [Compound I-14] | A (90%≤A≤100%) | A (90%≤A≤100%) | A (90%≤A≤100%) | 
18 | CCCCC(C(=O)N1CCC(c2nc(C3=NOC(c4c(F)cccc4F)C3)cs2)CC1)C(OC)OC (stereo not drawn) [II-9] | B (75%≤B<90%) | A (90%≤A≤100%) | D (45%≤D<60%) | 
19 | CO/C=C(/C(=O)N1CCC(c2nc(C3=NOC(c4c(F)cccc4F)C3)cs2)CC1)c1ccccc1C (stereo not drawn) [Compound I-11] |  | C (60%≤C<75%) |  | 
20 | CO/N=C(/C(=O)N1CCC(c2nc(C3=NOC(c4c(F)cccc4F)C3)cs2)CC1)c1cccc(C)c1 (stereo not drawn) [Compound I-20] |  | D (45%≤D<60%) |  | 
21 | CO/N=C(/C(=O)N1CCC(c2nc(C3=NOC(c4c(F)cccc4F)C3)cs2)CC1)c1ccccc1C (stereo not drawn) [Compound I-19] | A (90%≤A≤100%) | A (90%≤A≤100%) | A (90%≤A≤100%) | Control effect [1]: B (75%≤B<90%); Control effect [2]: A (90%≤A≤100%); Control effect [3]: A (90%≤A≤100%)

Row | Compound | Control effect (5 mg/L, Table 1) | Control effect (20 mg/L, Table 1) | Control effect (1.25 mg/L, Table 1) | also measured
22 | CO/C=C(/C(=O)N1CCC(c2nc(C3=NOC(c4c(F)cccc4F)C3)cs2)CC1)c1cc(Cl)ccc1Cl (stereo not drawn) [Compound I-15] | C (60%≤C<75%) | C (60%≤C<75%) |  | 
23 | CCOC(CC(=O)N1CCC(c2nc(C3=NOC(c4c(F)cccc4F)C3)cs2)CC1)OCC(F)(F)F (stereo not drawn) [II-19] | A (90%≤A≤100%) | A (90%≤A≤100%) | A (90%≤A≤100%) | Control effect (0.005 mg/L, re-screening, Table 2): B (75%≤B<90%); Control effect [4]: A (90%≤A≤100%); efficacy compared with dimethomorph and cyazofamid (0.078 mg/L): superior to that of dimethomorph and cyazofamid; efficacy compared with oxathiapiprolin (0.078 mg/L): equivalent to that of oxathiapiprolin at the same concentration; Control effect (0.078 mg/L, re-screening): ≥ 90%; Control effect [1]: A (90%≤A≤100%); Control effect [2]: A (90%≤A≤100%); Control effect (0.625 mg/L, Table 3): A (90% ≤ A ≤ 100%); Control effect [3]: A (90%≤A≤100%); Control effect (2.5 mg/L, Table 3): A (90% ≤ A ≤ 100%); Control effect (10 mg/L, Table 3): A (90% ≤ A ≤ 100%); bactericidal activity (re-screening): excellent bactericidal activity
24 | CC/C(=N\OC)C(=O)N1CCC(c2nc(C3=NOC(c4c(F)cccc4F)C3)cs2)CC1 (stereo not drawn) [Compound I-24] | B (75%≤B<90%) | A (90%≤A≤100%) | C (60%≤C<75%) | 
25 | CCO/C=C/C(=O)N1CCC(c2nc(C3=NOC(c4c(F)cccc4F)C3)cs2)CC1 (stereo not drawn) [Compound I-17] | A (90%≤A≤100%) | A (90%≤A≤100%) | A (90%≤A≤100%) | 
26 | CO/N=C(/C(=O)N1CCC(c2nc(C3=NOC(c4c(F)cccc4F)C3)cs2)CC1)c1ccc(C)cc1C (stereo not drawn) [Compound I-21] |  | D (45%≤D<60%) |  | 
27 | CO/C=C/C(=O)N1CCC(c2nc(C3=NOC(c4c(F)cccc4F)C3)cs2)CC1 (stereo not drawn) [Compound I-1] | A (90%≤A≤100%) | A (90%≤A≤100%) | A (90%≤A≤100%) | 
28 | CO/N=C(/C(=O)N1CCC(c2nc(C3=NOC(c4c(F)cccc4F)C3)cs2)CC1)c1cc(C)ccc1C (stereo not drawn) [Compound I-25] | B (75%≤B<90%) | A (90%≤A≤100%) | C (60%≤C<75%) | 
29 | CO/C=C(\I)C(=O)N1CCC(c2nc(C3=NOC(c4c(F)cccc4F)C3)cs2)CC1 (stereo not drawn) [Compound I-5] | B (75%≤B<90%) | B (75%≤B<90%) | C (60%≤C<75%) | 
30 | CCOC(CC(=O)N1CCC(c2nc(C3=NOC(c4c(F)cccc4F)C3)cs2)CC1)OCc1ccccc1 (stereo not drawn) [II-5] | D (45%≤D<60%) | A (90%≤A≤100%) |  | 
31 | CO/C=C(\C#N)C(=O)N1CCC(c2nc(C3=NOC(c4c(F)cccc4F)C3)cs2)CC1 (stereo not drawn) [Compound I-6] |  | B (75%≤B<90%) |  | 
32 | CO/C=C(/C(=O)N1CCC(c2nc(C3=NOC(c4c(F)cccc4F)C3)cs2)CC1)C(C)C (stereo not drawn) [Compound I-10] | A (90%≤A≤100%) | A (90%≤A≤100%) | A (90%≤A≤100%) | 
33 | CO/C=C(\Br)C(=O)N1CCC(c2nc(C3=NOC(c4c(F)cccc4F)C3)cs2)CC1 (stereo not drawn) [Compound I-4] | A (90%≤A≤100%) | A (90%≤A≤100%) | B (75%≤B<90%) | 
34 | O=C(CC1OCCCCO1)N1CCC(c2nc(C3=NOC(c4c(F)cccc4F)C3)cs2)CC1 (stereo not drawn) [II-28] | C (60%≤C<75%) | C (60%≤C<75%) |  | 
35 | CCO/N=C(\C#N)C(=O)N1CCC(c2nc(C3=NOC(c4c(F)cccc4F)C3)cs2)CC1 (stereo not drawn) [Compound I-28] | B (75%≤B<90%) | A (90%≤A≤100%) |  | 
36 | CCC/C(=C\OC)C(=O)N1CCC(c2nc(C3=NOC(c4c(F)cccc4F)C3)cs2)CC1 (stereo not drawn) [Compound I-9] | A (90%≤A≤100%) | A (90%≤A≤100%) | A (90%≤A≤100%) | 
37 | COC(OC)C(C)C(=O)N1CCC(c2nc(C3=NOC(c4c(F)cccc4F)C3)cs2)CC1 (stereo not drawn) [II-6] | D (45%≤D<60%) | C (60%≤C<75%) |  | 
38 | CO/C=C(/C(=O)N1CCC(c2nc(C3=NOC(c4c(F)cccc4F)C3)cs2)CC1)c1ccc(C)cc1 (stereo not drawn) [Compound I-13] | B (75%≤B<90%) | A (90%≤A≤100%) |  | 
39 | O=C(CC1OCCO1)N1CCC(c2nc(C3=NOC(c4c(F)cccc4F)C3)cs2)CC1 (stereo not drawn) [II-22] | D (45%≤D<60%) | A (90%≤A≤100%) |  | 
40 | COc1ccc(C(=CC(=O)N2CCOCC2)c2ccc(Cl)cc2)cc1OC [dimethomorph, reference compound] |  |  |  | Control effect [4]: C (60%≤C<75%); Control effect [1]: B (75%≤B<90%); Control effect [2]: A (90%≤A≤100%); Control effect [3]: A (90%≤A≤100%)
41 | COC(CC(=O)N1CCC(c2nc(C3=NOC(c4c(F)cccc4F)C3)cs2)CC1)OC (stereo not drawn) [II-1] | A (90%≤A≤100%) | A (90%≤A≤100%) | A (90%≤A≤100%) | 
